The text below walks through data of patent US10174021B2, “Substituted pyrazolo[1,5-A]pyridines and their use” (BAYER PHARMA AKTIENGESELLSCHAFT, priority 2014, dated 2019).

Counter-ions that a name gives are not always drawn.

The test system of this experiment is recombinant guanylate cyclase reporter cell line. Nature of the experiment: Effect on a recombinant guanylate cyclase reporter cell line. The class given is cell-based. The following applies: in some cases mean values from individual determinations, read-out: MEC (minimum effective concentration). As for the experimental part:
B-2. Effect on a Recombinant Guanylate Cyclase Reporter Cell Line
The cellular activity of the compounds according to the invention is determined using a recombinant guanylate cyclase reporter cell line, as described in F. Wunder et al., Anal. Biochem. 339, 104-112 (2005).
Representative MEC values (MEC=minimum effective concentration) for the compounds of the invention are shown in the table below (in some cases as mean values from individual determinations): […]

Regarding `Cc1cc(OCc2c(F)cccc2F)n2nc(C)c(-c3cnn(CC(C)(C)N)c3)c2c1` [Example 16, 1-(4-{7-[(2,6-Difluorobenzyl)oxy]-2,5-dimethylpyrazolo[1,5-a]pyridin-3-yl}-1H-pyrazol-1-yl)-2-methylpropane-2-amine], the minimal effective concentration amounted to 0.1 µM.

Take `Cc1cc(OCc2c(F)cccc2F)n2nc(C)c(-c3csc(CN4CCOCC4)c3)c2c1` [Example 4, 7-[(2,6-Difluorobenzyl)oxy]-2,5-dimethyl-3-[5-(morpholin-4-ylmethyl)-3-thienyl]pyrazolo[1,5-a]pyridine]: the minimal effective concentration amounted to 0.07 µM.

Turning to `Cc1cc(OCc2c(F)cccc2F)n2nc(C)c(-c3cncc(C(=O)O)c3)c2c1` [Example 27, 5-{7-[(2,6-Difluorobenzyl)oxy]-2,5-dimethylpyrazolo[1,5-a]pyridin-3-yl}nicotinic acid], the minimal effective concentration is 2 µM.

As to `CCN(C)Cc1cccc(-c2c(C)nn3c(OCc4c(F)cccc4F)cc(C)cc23)c1` [Example 10, N-(3-{7-[(2,6-Difluorobenzyl)oxy]-2,5-dimethylpyrazolo[1,5-a]pyridin-3-yl}benzyl)-N-methylethanamine], the minimal effective concentration came to 0.065 µM.

With `Cc1cc(OCc2c(F)cccc2F)n2nc(C3CC3)c(-c3cn[nH]c3)c2c1` [Example 31, 2-Cyclopropyl-7-[(2,6-difluorobenzyl)oxy]-5-methyl-3-(1H-pyrazol-4-yl)pyrazolo[1,5-a]pyridine], the minimal effective concentration was 0.03 µM.

In the case of `Cc1cc(OCc2c(F)cccc2F)n2nc(C)c(-c3cccc(N4CCCC4)c3)c2c1` [Example 14, 7-[(2,6-Difluorobenzyl)oxy]-2,5-dimethyl-3-[3-(pyrrolidin-1-yl)phenyl]pyrazolo[1,5-a]pyridine], the minimal effective concentration was found to be 2 µM.

Turning to `Cc1cc(OCc2c(F)ccc(F)c2F)n2nc(C)c(-c3cnn(CCN4CCOCC4)c3)c2c1` [Example 32, 2,5-Dimethyl-3-{1-[2-(morpholin-4-yl)ethyl]-1H-pyrazol-4-yl}-7-[(2,3,6-trifluorobenzyl)oxy]pyrazolo[1,5-a]pyridine trifluoroacetate], the minimal effective concentration amounted to 0.1 µM.

Regarding `Cc1cc(OCc2c(F)cccc2F)n2nc(C)c(-c3cnn(CCC(=O)O)c3)c2c1` [Example 22, 3-(4-{7-[(2,6-Difluorobenzyl)oxy]-2,5-dimethylpyrazolo[1,5-a]pyridin-3-yl}-1H-pyrazol-1-yl)propanoic acid trifluoroacetate], the minimal effective concentration is 0.1 µM.

Take `Cc1cc(OCc2c(F)cccc2F)n2nc(C)c(-c3cnn(CCN4CCOCC4)c3)c2c1` [Example 5, 7-[(2,6-Difluorobenzyl)oxy]-2,5-dimethyl-3-{1-[2-(morpholin-4-yl)ethyl]-1H-pyrazol-4-yl}pyrazolo[1,5-a]pyridine]: the minimal effective concentration was 0.07 µM.

Regarding `Cc1cc(OCc2c(F)cccc2F)n2nc(C)c(-c3cncnc3)c2c1` [Example 29, 7-[(2,6-Difluorobenzyl)oxy]-2,5-dimethyl-3-(pyrimidin-5-yl)pyrazolo[1,5-a]pyridine], the minimal effective concentration stood at 0.3 µM.

As to `Cc1cc(OCC2CCCCC2)n2nc(C)c(-c3cnn(CCN4CCOCC4)c3)c2c1` [Example 33, 7-(Cyclohexylmethoxy)-2,5-dimethyl-3-{1-[2-(morpholin-4-yl)ethyl]-1H-pyrazol-4-yl}pyrazolo[1,5-a]pyridine], the minimal effective concentration was 0.1 µM.

For `Cc1cc(OCc2c(F)cccc2F)n2nc(C)c(-c3cccc(C(N)=O)c3)c2c1` [Example 12, 3-{7-[(2,6-Difluorobenzyl)oxy]-2,5-dimethylpyrazolo[1,5-a]pyridin-3-yl}benzamide], the minimal effective concentration came out at 0.055 µM.

Take `CC(=O)Nc1cccc(-c2c(C)nn3c(OCc4c(F)cccc4F)cc(C)cc23)c1` [Example 3, 1-(3-{7-[(2,6-Difluorobenzyl)oxy]-2,5-dimethylpyrazolo[1,5-a]pyridin-3-yl}phenyl)acetamide]: the minimal effective concentration amounted to 0.065 µM.
